Numbers after ± are expanded uncertainties.
Tests used:
[1] = Liquid, Ebulliometric method (Recirculating still)
[2] = refractive index (Na D-line) (dimensionless); settings: 293 K; 96.15 kPa; Liquid; Standard Abbe refractometry
[3] = refractive index (Na D-line) (dimensionless); xn = mol fraction of the nth substance listed; settings: 293 K, 96.15 kPa, Liquid, Standard Abbe refractometry

With `CC(=O)O` [acetic acid] as the compound, how does the “vapor or sublimation pressure” value ([1]; 388.91 K) read?
Its value is 96.15 ± 0.98 kPa.

What about the refractive index [2] of the same compound?
The refractive index was 1.3724 ± 0.004.

Which refractive index ([3]; x1 = 1) does the source give for `CC(=O)O` [acetic acid] + COc1ccccc1 here?
The refractive index was 1.3724 ± 0.004.

For `CC(C)=O` [acetone], which “vapor or sublimation pressure” value ([1]; 327.9 K) is on record?
Its value is 96.15 ± 0.98 kPa.

And the refractive index [2]?
Its refractive index is 1.3606 ± 0.004.

For `CC(C)=O` [acetone] + COc1ccccc1, which refractive index ([3]; x1 = 1) is on record?
The refractive index was 1.3606 ± 0.004.

For `Nc1ccccc1` [aniline], which “vapor or sublimation pressure” value ([1]; 455.4 K) is on record?
The value was 96.15 ± 0.99 kPa.

What about the refractive index [2] of the same compound?
The refractive index was 1.5868 ± 0.004.

For `Nc1ccccc1` [aniline] + CN(C)C=O, which refractive index ([3]; x2 = 0) is on record?
Its refractive index is 1.5868 ± 0.004.

And the refractive index ([3]; x2 = 0.0624)?
Its refractive index is 1.5795 ± 0.004.

What about the refractive index ([3]; x2 = 0.1252) of the same compound?
Its refractive index is 1.5723 ± 0.004.

And the refractive index ([3]; x2 = 0.2423)?
Its refractive index is 1.5575 ± 0.004.

What about the refractive index ([3]; x2 = 0.3527) of the same compound?
Its refractive index is 1.543 ± 0.004.

What about the refractive index ([3]; x2 = 0.459) of the same compound?
Its refractive index is 1.5267 ± 0.004.

What about the refractive index ([3]; x2 = 0.5592) of the same compound?
Its refractive index is 1.5119 ± 0.004.

And the refractive index ([3]; x2 = 0.6561)?
Its refractive index is 1.4975 ± 0.004.

What about the refractive index ([3]; x2 = 0.7474) of the same compound?
The refractive index was 1.4799 ± 0.004.

And the refractive index ([3]; x2 = 0.8363)?
The refractive index was 1.4638 ± 0.004.

What about the refractive index ([3]; x2 = 0.9206) of the same compound?
Its refractive index is 1.4477 ± 0.004.

And the refractive index ([3]; x2 = 0.9602)?
The refractive index was 1.4401 ± 0.004.

For `COc1ccccc1` [anisole], which “vapor or sublimation pressure” value ([1]; 424.55 K) is on record?
Its value is 96.15 ± 0.99 kPa.

What about the “vapor or sublimation pressure” value ([1]; 424.61 K) of the same compound?
Its value is 96.15 ± 0.99 kPa.

And the “vapor or sublimation pressure” value ([1]; 424.79 K)?
The value was 96.15 ± 0.99 kPa.

What about the refractive index [2] of the same compound?
The refractive index was 1.5175 ± 0.004.

For `COc1ccccc1` [anisole] + CC(=O)O, which refractive index ([3]; x2 = 0) is on record?
Its refractive index is 1.5175 ± 0.004.

And the refractive index ([3]; x2 = 0.0875)?
Its refractive index is 1.5107 ± 0.004.

What about the refractive index ([3]; x2 = 0.167) of the same compound?
The refractive index was 1.503 ± 0.004.

And the refractive index ([3]; x2 = 0.3109)?
The refractive index was 1.4878 ± 0.004.

And the refractive index ([3]; x2 = 0.4358)?
The refractive index was 1.4731 ± 0.004.

What about the refractive index ([3]; x2 = 0.5453) of the same compound?
Its refractive index is 1.4584 ± 0.004.

What about the refractive index ([3]; x2 = 0.6416) of the same compound?
Its refractive index is 1.4441 ± 0.004.

And the refractive index ([3]; x2 = 0.7302)?
Its refractive index is 1.4295 ± 0.004.

And the refractive index ([3]; x2 = 0.8075)?
Its refractive index is 1.4155 ± 0.004.

And the refractive index ([3]; x2 = 0.877)?
Its refractive index is 1.4018 ± 0.004.

What about the refractive index ([3]; x2 = 0.9413) of the same compound?
Its refractive index is 1.3874 ± 0.004.

What about the refractive index ([3]; x2 = 0.9711) of the same compound?
The refractive index was 1.3807 ± 0.004.

What does the source list for `COc1ccccc1` [anisole] + CC(C)=O?
refractive index ([3]; x2 = 0): 1.5175 ± 0.004; refractive index ([3]; x2 = 0.0888): 1.5095 ± 0.004; refractive index ([3]; x2 = 0.1723): 1.4998 ± 0.004; refractive index ([3]; x2 = 0.3184): 1.4879 ± 0.004; refractive index ([3]; x2 = 0.4448): 1.4709 ± 0.004; refractive index ([3]; x2 = 0.5541): 1.459 ± 0.004; refractive index ([3]; x2 = 0.6508): 1.4441 ± 0.004; refractive index ([3]; x2 = 0.736): 1.4285 ± 0.004; refractive index ([3]; x2 = 0.8121): 1.406 ± 0.004; refractive index ([3]; x2 = 0.8816): 1.3923 ± 0.004; refractive index ([3]; x2 = 0.9434): 1.3746 ± 0.004; refractive index ([3]; x2 = 0.9725): 1.3678 ± 0.004

With `COc1ccccc1` [anisole] + CC(C)O as the compound, how does the refractive index ([3]; x2 = 0) read?
The refractive index was 1.5175 ± 0.004.

What about the refractive index ([3]; x2 = 0.0879) of the same compound?
The refractive index was 1.5092 ± 0.004.

And the refractive index ([3]; x2 = 0.1663)?
Its refractive index is 1.5011 ± 0.004.

And the refractive index ([3]; x2 = 0.3122)?
Its refractive index is 1.484 ± 0.004.

What about the refractive index ([3]; x2 = 0.4359) of the same compound?
Its refractive index is 1.4688 ± 0.004.

What about the refractive index ([3]; x2 = 0.5438) of the same compound?
Its refractive index is 1.4543 ± 0.004.

What about the refractive index ([3]; x2 = 0.6429) of the same compound?
Its refractive index is 1.4403 ± 0.004.

And the refractive index ([3]; x2 = 0.7293)?
The refractive index was 1.4272 ± 0.004.

What about the refractive index ([3]; x2 = 0.8063) of the same compound?
Its refractive index is 1.4143 ± 0.004.

And the refractive index ([3]; x2 = 0.879)?
Its refractive index is 1.4019 ± 0.004.

What about the refractive index ([3]; x2 = 0.9372) of the same compound?
The refractive index was 1.3911 ± 0.004.

And the refractive index ([3]; x2 = 0.9693)?
The refractive index was 1.3861 ± 0.004.

Which results are given for `CN(C)C=O` [dimethylformamide]?
vapor or sublimation pressure ([1]; 424.53 K): 96.15 ± 0.99 kPa; vapor or sublimation pressure ([1]; 424.6 K): 96.15 ± 0.99 kPa; refractive index [2]: 1.4318 ± 0.004

With `CN(C)C=O` [dimethylformamide] + Nc1ccccc1 as the compound, how does the refractive index ([3]; x1 = 1) read?
Its refractive index is 1.4318 ± 0.004.

Which results are given for `CC(C)O` [propan-2-ol]?
vapor or sublimation pressure ([1]; 354.17 K): 96.15 ± 0.98 kPa; refractive index [2]: 1.3758 ± 0.004

Which refractive index ([3]; x1 = 1) does the source give for `CC(C)O` [propan-2-ol] + COc1ccccc1 here?
The refractive index was 1.3758 ± 0.004.

Reference: the NIST ThermoML archive (doi:10.1021/acs.jced.6b00700)
